From patent US12478624B2, “Heterocyclic derivatives, pharmaceutical compositions and their use in the treatment or amelioration of cancer” (Tolremo Therapeutics AG, priority 2019, dated 2025) come the findings set out here.

Broadly, the EC50 is the concentration giving half of the maximal effect.

One test relates to A375 cells. Put plainly: Assay 1: A375 cells treated with S1152, S1008 and compound, immunofluorescence (sc-365823) signal. Format: cell-based. The conditions noted are these: 1 μM S1152 + 0.5 μM S1008, one day. Put shortly:
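A375 cells treated one day with 1 μM S1152, 0.5 μM S1008 and compound dose ranges in DMEM/10% FCS, then fixed, permeabilised and immunostained. Green signal normalised to nuclear counterstain (ethidium-type or DAPI), log ratio fitted by four-parameter regression for EC50.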

Another test has as its system OPM-2. Put plainly: Assay 2: multiple myeloma cellular efficacy, PrestoBlue cell proliferation/survival. The conditions noted are these: Homo sapiens, 96 h, OPM-2 cells, 4 days. Format: cell-based. How it is done: Multiple Myeloma Cellular Efficacy:
10000 OPM-2 (ACC50; DSMZ) were plated into wells of a 384 well plate (Greiner 781090). Cells were treated for 4 days with a dose range of compound or vehicle. At the end of the experiment cells were stained directly with PrestoBlue (ThermoFisher Scietific; A13262) for 2 hours at 37° C. in a humidified incubator according to manufactor's instruction. To assess the relative cell number the PrestoBlue signal was measured using either a TecanM1000Pro reader or a Tecan Sparks reader following the manufactor's instructions. Background (no cells) values were subtracted and set in relation to the vehicle control. To assess the EC50 of each compound the relative fluorescence value was plotted against the compound concentration after log transformation. Data were fitted in a nonlinear manner with a variable slope (four parameters) using graphpad prism software. Cellular efficacy of compounds was evaluated in the multiple myeloma cell line OPM-2 using the cell proliferation/survival assay PrestoBlue. EC50 values are classified as indicated below.

`CC(=O)N1C[C@H](c2nc(Nc3cccc4c3cnn4C)cc(-c3cnccn3)n2)CC[C@@H]1C` [Compound 00049, 1-((2S,5R)-2-methyl-5-(4-((1-methyl-1H-indazol-4-yl)amino)-6-(pyrazin-2-yl)pyrimidin-2-yl)piperidin-1-yl)ethan-1-one]: the half-maximal effective concentration (EC50) in the test with A375 cells and in the test with OPM-2 was less than 200 nM each time.

In the case of `CC(=O)N1C[C@H](c2nc(Nc3cccc(-n4ccnn4)c3)cc(-c3cccnc3)n2)CC[C@@H]1C` [Compound 00083, 1-((2S,5R)-5-(4-((3-(1H-1,2,3-triazol-1-yl)phenyl)amino)-6-(pyridin-3-yl)pyrimidin-2-yl)-2-methylpiperidin-1-yl)ethan1-one], the EC50 in the test on A375 cells was less than 200 nM; in the test with OPM-2 it was 200 to 1000 nM.

On to `COCCn1cc(-c2cc(Nc3cc(-c4cccnc4)nc([C@@H]4CC[C@H](C)N(C(C)=O)C4)n3)ccn2)cn1` [Compound 00160, 1-((2S,5R)-5-(4-((2-(1-(2-methoxyethyl)-1H-pyrazol-4-yl)pyridin-4-yl)amino)-6-(pyridin-3-yl)pyrimidin-2-yl)-2-methylpiperidin-1-yl)ethan-1-one], for which the EC50 in the test on A375 cells and in the test with OPM-2 was 200 to 1000 nM each time.

Turning to `COc1cc(Nc2cc(-c3cccnc3)nc([C@@H]3CC[C@H](C)N(C(C)=O)C3)n2)ccn1` [Compound 00139, 1-((2S,5R)-5-(4-((2-methoxypyridin-4-yl)amino)-6-(pyridin-3-yl)pyrimidin-2-yl)-2-methylpiperidin-1-yl)ethan1-one], the 50% effective concentration (EC50) with A375 cells and in the test on OPM-2 was less than 200 nM throughout.

Turning to `CC(=O)N1C[C@H](c2nc(Nc3ccnc(C(F)(F)F)c3)cc(-c3cccnc3)n2)CC[C@@H]1C` [Compound 00123, 1-((2S,5R)-2-methyl-5-(4-(pyridin-3-yl)-6-((2-(trifluoromethyl)pyridin-4-yl)amino)pyrimidin-2-yl)piperidin 1-yl)ethan-1-one], the EC50 in the test on A375 cells and in the test on OPM-2 was less than 200 nM throughout.

In the case of `COc1cc(Nc2cc(-c3cccnc3)nc([C@@H]3CC[C@H](C)N(C(C)=O)C3)n2)cc(C)n1` [Compound 00140, 1-((2S,5R)-5-(4-((2-methoxy-6-methylpyridin-4-yl)amino)-6-(pyridin-3-yl)pyrimidin-2-yl)-2-methylpiperidin-1-yl)ethan-1-one], the EC50 in the test with A375 cells and with OPM-2 was less than 200 nM in each case.

As for `COCC(=O)Nc1cccc(Nc2cc(-c3cccnc3)nc([C@@H]3CC[C@H](C)N(C(C)=O)C3)n2)c1` [Compound 00084, N-(3-((2-((3R,6S)-1-acetyl-6-methylpiperidin-3-yl)-6-(pyridin-3-yl)pyrimidin-4-yl)amino)phenyl)-2-methoxyacetamide], the figures for the EC50 in the test on A375 cells and in the test on OPM-2 were less than 200 nM and 200 to 1000 nM, respectively.

Turning to `CC(=O)N1C[C@H](c2nc(Nc3cccc(-c4nnc(C)o4)c3)cc(-c3cccnc3)n2)CC[C@@H]1C` [Compound 00142, 1-((2S,5R)-2-methyl-5-(4-((3-(5-methyl-1,3,4-oxadiazol-2-yl)phenyl)amino)-6-(pyridin-3-yl)pyrimidin-2-yl)piperidin-1-yl)ethan-1-one], the EC50 in the test on A375 cells and in the test with OPM-2 was less than 200 nM throughout.

Regarding `CC(=O)Nc1cc(Nc2cc(-c3cccnc3)nc([C@@H]3CC[C@H](C)N(C(C)=O)C3)n2)cc(C(F)F)c1` [Compound 00060, N-(3-((2-((3R,6S)-1-acetyl-6-methylpiperidin-3-yl)-6-(pyridin-3-yl)pyrimidin-4-yl)amino)-5-(difluoromethyl)phenyl)acetamide], the EC50 in the test with A375 cells is 200 to 1000 nM; in the test with OPM-2 it was less than 200 nM.

Turning to `CC(=O)N1C[C@H](c2nc(Nc3ccnc(C)c3)cc(-c3cncc(N4C[C@@H]5C[C@H]4CO5)c3)n2)CC[C@@H]1C` [Compound 00115, 1-((2S,5R)-5-(4-(5-((1S,4S)-2-oxa-5-azabicyclo[2.2.1]heptan-5-yl)pyridin-3-yl)-6-((2-methylpyridin-4-yl)amino)pyrimidin-2-yl)-2-methylpiperidin-1-yl)ethan-1-one], the EC50 with A375 cells is less than 200 nM; in the test on OPM-2, 200 to 1000 nM.

As to `CC(=O)N1C[C@H](c2nc(Nc3ccnc(C)c3)cc(-c3cncc(OC(F)F)c3)n2)CC[C@@H]1C` [Compound 00111, 1-((2S,5R)-5-(4-(5-(difluoromethoxy)pyridin3-yl)-6-((2-methylpyridin4-yl)amino)pyrimidin-2-yl)-2-methylpiperidin-1-yl)ethan-1-one], the half-maximal effective concentration (EC50) in the test on A375 cells is less than 200 nM; with OPM-2 it was 200 to 1000 nM.

For `CC(=O)N1C[C@H](c2nc(Nc3ccnc(F)c3)cc(-c3cncc(O)c3)n2)CC[C@@H]1C` [Compound 00117, 1-((2S,5R)-5-(4-((2-fluoropyridin-4-yl)amino)-6-(5-hydroxypyridin-3-yl)pyrimidin-2-yl)-2-methylpiperidin-1-yl)ethan-1-one], the concentration giving a half-maximal response (EC50) in the test with A375 cells and with OPM-2 was 1000 to 10000 nM throughout.

For `CC(=O)N1C[C@H](c2nc(Nc3ccnc(C)c3)cc(-c3cc(C)cs3)n2)CC[C@@H]1C` [Compound 00105, 1-((2S,5R)-2-methyl-5-(4-((2-methylpyridin-4-yl)amino)-6-(4-methylthiophen-2-yl)pyrimidin-2-yl)piperidin-1-yl)ethan-1-one], the EC50 is less than 200 nM in the test with A375 cells and 200 to 1000 nM with OPM-2.

On to `COCCn1ccc2c(-c3cc(Nc4cccc(-c5cn(C)nn5)c4)nc([C@@H]4CC[C@H](C)N(C(C)=O)C4)n3)cncc21` [Compound 00094, 1-((2S,5R)-5-(4-(1-(2-methoxyethyl)-1H-pyrrolo[2,3-c]pyridin4-yl)-6-((3-(1-methyl-1H-1,2,3-triazol-4-yl)phenyl)amino)pyrimidin-2-yl)-2-methylpiperidin-1-yl)ethan1-one], for which the EC50 in the test on A375 cells and in the test on OPM-2 was less than 200 nM each time.

Regarding `CC(=O)N1C[C@H](c2nc(Nc3ccnc(-c4cnn(C5CC5)c4)c3)cc(-c3cccnc3)n2)CC[C@@H]1C` [Compound 00157, 1-((2S,5R)-5-(4-((2-(1-cyclopropyl-1H-pyrazol-4-yl)pyridin-4-yl)amino)-6-(pyridin-3-yl)pyrimidin-2-yl)-2-methylpiperidin-1-yl)ethan-1-one], the concentration giving a half-maximal response (EC50) in the test with A375 cells and with OPM-2 was less than 200 nM throughout.

For the compound `CC(=O)Nc1cccc(Nc2cc(-c3cccnc3)nc([C@@H]3CC[C@H](C)N(C(C)=O)C3)n2)c1` [Compound 00054, N-(3-((2-((3R,6S)-1-acetyl-6-methylpiperidin-3-yl)-6-(pyridin-3-yl)pyrimidin-4-yl)amino)phenyl)acetamide], the half-maximal effective concentration (EC50) in the test on A375 cells and in the test with OPM-2 was less than 200 nM throughout.

As for `CC(=O)N1C[C@H](c2nc(Nc3ccnc(C)c3)cc(-c3cnccn3)n2)CC[C@@H]1C` [Compound 000126], the concentration for a half-maximal effect (EC50) in the test on A375 cells and in the test with OPM-2 was less than 200 nM each time.

As for `CC(=O)N1C[C@H](c2nc(Nc3cc(-c4cnn(C)c4)cc(C(F)F)c3)cc(-c3cccnc3)n2)CC[C@@H]1C` [Compound 00057, 1-((2S,5R)-5-(4-((3-(difluoromethyl)-5-(1-methyl-1H-pyrazol-4-yl)phenyl)amino)-6-(pyridin-3-yl)pyrimidin-2-yl)-2-methylpiperidin-1-yl)ethan-1-one], the 50% effective concentration (EC50) with A375 cells and in the test on OPM-2 was less than 200 nM each time.

Regarding `CC(=O)N1C[C@H](c2nc(Nc3cc(F)cc(N4CCOCC4)c3)cc(-c3cnccn3)n2)CC[C@@H]1C` [Compound 00070, 1-((2S,5R)-5-(4-((3-fluoro-5-morpholinophenyl)amino)-6-(pyrazin-2-yl)pyrimidin-2-yl)-2-methylpiperidin-1-yl)ethan-1-one], the EC50 in the test with A375 cells and in the test with OPM-2 was less than 200 nM throughout.

Take `CC(=O)N1C[C@H](c2nc(Nc3cccc(NC(=O)c4ccccc4)c3)cc(-c3cccnc3)n2)CC[C@@H]1C` [Compound 00079, N-(3-((2-((3R,6S)-1-acetyl-6-methylpiperidin-3-yl)-6-(pyridin-3-yl)pyrimidin-4-yl)amino)phenyl)benzamide]: the EC50 in the test with A375 cells and in the test on OPM-2 was less than 200 nM each time.

On to `CC(=O)N1C[C@H](c2nc(Nc3cc(F)cc(-c4cnn(C)c4)c3)cc(-c3cncc(OCCO)c3)n2)CC[C@@H]1C` [Compound 00093, 1-((2S,5R)-5-(4-((3-fluoro-5-(1-methyl-1H-pyrazol-4-yl)phenyl)amino)-6-(5-(2-hydroxyethoxy)pyridin-3-yl)pyrimidin-2-yl)-2-methylpiperidin-1-yl)ethan-1-one], for which the EC50 with A375 cells and with OPM-2 was less than 200 nM throughout.

With `CC(=O)N1C[C@H](c2nc(Nc3cccc(-c4ncn(C)n4)c3)cc(-c3cccnc3)n2)CC[C@@H]1C` [Compound 00052, 1-((2S,5R)-2-methyl-5-(4-((3-(1-methyl-1H-1,2,4-triazol-3-yl)phenyl)amino)-6-(pyridin-3-yl)pyrimidin-2-yl)piperidin-1-yl)ethan-1-one], the half-maximal effective concentration (EC50) in the test with A375 cells and in the test on OPM-2 was less than 200 nM throughout.

Consider `CC(=O)N1C[C@H](c2nc(Nc3ccnc(F)c3)cc(-c3cncc4c3ccn4C)n2)CC[C@@H]1C` [Compound 00118, 1-((2S,5R)-5-(4-((2-fluoropyridin-4-yl)amino)-6-(1-methyl-1H-pyrrolo[2,3-c]pyridin-4-yl)pyrimidin-2-yl)-2-methylpiperidin-1-yl)ethan-1-one], for which the EC50 in the test with A375 cells and in the test with OPM-2 was less than 200 nM in each case.
